This passage reports TGI results from PubChem BioAssay (NCI).

Among the test systems are ACHN renal; COLO 205 colon; CAKI-1 renal; SF-539 CNS; RPMI-8226 leukemia; SK-MEL-2 melanoma; HT29 colon; SK-MEL-28 melanoma; OVCAR-8 ovarian; HCT-15 colon; HS 578T breast; LOX IMVI melanoma; OVCAR-3 ovarian; U251 CNS; DU-145 prostate; CCRF-CEM leukemia; NCI/ADR-RES ovarian; BT-549 breast.
Holding throughout (test): inhibition of tumour cell growth, NCI panel, 48 h

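Tested at 5 concentrations; 48 h exposure; 96-well plates; endpoints linearly interpolated, else capped at highest concentration. At the TGI there is no net growth.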 A value given as a limit tells only on which side of the number the result lay.

Regarding `CC(C)C(NCc1c(O)ccc2c(-c3ccccc3)cc(=O)oc12)C(=O)O` (stereo not given), the TGI with ACHN renal, in the assay with COLO 205 colon, in the assay on CAKI-1 renal, in the assay on SF-539 CNS, in the assay with RPMI-8226 leukemia and with SK-MEL-2 melanoma was more than 100 µM each time. For the same molecule, the TGI with HT29 colon, in the assay on SK-MEL-28 melanoma, in the assay on OVCAR-8 ovarian, in the assay on HCT-15 colon, with HS 578T breast and in the assay with LOX IMVI melanoma was more than 100 µM throughout. Also, the TGI in the assay with OVCAR-3 ovarian, in the assay with U251 CNS, with DU-145 prostate, in the assay on CCRF-CEM leukemia and with NCI/ADR-RES ovarian was more than 100 µM throughout.
For the molecule `O=c1[nH]n(Cc2ccccc2Cl)c2ccccc12`, the TGI in the assay with ACHN renal, in the assay with COLO 205 colon, in the assay with CAKI-1 renal, in the assay with SF-539 CNS, with RPMI-8226 leukemia and with SK-MEL-2 melanoma was more than 100 µM throughout. Also, the TGI with HT29 colon, in the assay with SK-MEL-28 melanoma, with OVCAR-8 ovarian, in the assay with HCT-15 colon, with HS 578T breast and with LOX IMVI melanoma was more than 100 µM each time. The TGI with OVCAR-3 ovarian, in the assay on U251 CNS, in the assay on DU-145 prostate, in the assay on CCRF-CEM leukemia and in the assay with NCI/ADR-RES ovarian was more than 100 µM each time.
Turning to `CCc1cc2c(oc3cc(C)ccc32)c(=O)n1C`, the TGI in the assay on ACHN renal, in the assay with SF-539 CNS, with SK-MEL-2 melanoma, in the assay on HT29 colon, with OVCAR-8 ovarian and with HCT-15 colon was more than 10 µM in each case. For the same molecule, the TGI with HS 578T breast, in the assay with LOX IMVI melanoma, with OVCAR-3 ovarian, with U251 CNS, in the assay with BT-549 breast and in the assay on DU-145 prostate was more than 10 µM in each case. This molecule displayed a TGI with CCRF-CEM leukemia of more than 10 µM.
For `COC(=O)c1c(-c2ccccc2)c2sc3ccccc3n2c1N`, the TGI in the assay on ACHN renal is more than 100 µM; with COLO 205 colon, 97 µM; in the assay with CAKI-1 renal, more than 100 µM; with SF-539 CNS it was more than 100 µM; in the assay on RPMI-8226 leukemia, more than 100 µM; in the assay on SK-MEL-2 melanoma, 70.7 µM. The TGI with HT29 colon is more than 100 µM; in the assay with SK-MEL-28 melanoma, more than 100 µM; in the assay with OVCAR-8 ovarian, more than 100 µM; in the assay with HCT-15 colon, more than 100 µM; in the assay on LOX IMVI melanoma it was 43.2 µM; in the assay on OVCAR-3 ovarian it was more than 100 µM. Moreover, the TGI in the assay on U251 CNS, with BT-549 breast, with DU-145 prostate, in the assay with CCRF-CEM leukemia and in the assay with NCI/ADR-RES ovarian was more than 100 µM each time.
In the case of `COCCOC(=O)C(C)=[N+]=[N-]`, the TGI in the assay on ACHN renal, with COLO 205 colon, in the assay on CAKI-1 renal, in the assay with RPMI-8226 leukemia, with HT29 colon and in the assay with SK-MEL-28 melanoma was more than 100 µM each time. In addition, the TGI with OVCAR-8 ovarian, with HCT-15 colon, in the assay with HS 578T breast, with LOX IMVI melanoma, in the assay on OVCAR-3 ovarian and in the assay with U251 CNS was more than 100 µM throughout. Moreover, the TGI in the assay on BT-549 breast, in the assay on DU-145 prostate and with NCI/ADR-RES ovarian was more than 100 µM each time.
Turning to `N#Cc1nc(COCCOCc2ccc(F)cc2)oc1N`, the TGI in the assay with ACHN renal, in the assay on COLO 205 colon, with CAKI-1 renal, in the assay with SF-539 CNS, in the assay with RPMI-8226 leukemia and with SK-MEL-2 melanoma was more than 100 µM in each case. The TGI in the assay with HT29 colon, with SK-MEL-28 melanoma, with OVCAR-8 ovarian, in the assay with HCT-15 colon, with LOX IMVI melanoma and in the assay with OVCAR-3 ovarian was more than 100 µM each time. Besides, the TGI in the assay with U251 CNS, with BT-549 breast, in the assay with DU-145 prostate, in the assay with CCRF-CEM leukemia and in the assay with NCI/ADR-RES ovarian was more than 100 µM in each case.
With `CCc1n[nH]c(=O)n1CCO`, the TGI in the assay with ACHN renal, in the assay on COLO 205 colon, in the assay on CAKI-1 renal, in the assay with SF-539 CNS, in the assay on RPMI-8226 leukemia and in the assay with SK-MEL-2 melanoma was more than 100 µM in each case. Further, the TGI in the assay on HT29 colon, in the assay with SK-MEL-28 melanoma, with OVCAR-8 ovarian, with HCT-15 colon, in the assay on LOX IMVI melanoma and in the assay on OVCAR-3 ovarian was more than 100 µM each time. Further, the TGI in the assay on U251 CNS, in the assay on BT-549 breast, in the assay with DU-145 prostate and in the assay with NCI/ADR-RES ovarian was more than 100 µM in each case.
As to `CCCCNC(=S)/N=C/c1c(O)c2ccccc2[nH]c1=O`, the TGI with ACHN renal, with COLO 205 colon, in the assay on CAKI-1 renal, with SF-539 CNS, in the assay on RPMI-8226 leukemia and in the assay on HT29 colon was more than 10 µM each time. Moreover, the TGI in the assay on SK-MEL-28 melanoma, in the assay with OVCAR-8 ovarian, in the assay with HCT-15 colon, in the assay with OVCAR-3 ovarian, in the assay with U251 CNS and with BT-549 breast was more than 10 µM each time. Besides, the TGI in the assay on CCRF-CEM leukemia and with NCI/ADR-RES ovarian was more than 10 µM throughout.
For `N#Cc1sc2c(c1O)c(=O)n(-c1ccccc1)c(=S)n2-c1ccccc1`, the TGI in the assay on ACHN renal, in the assay with COLO 205 colon, in the assay with RPMI-8226 leukemia, in the assay on SK-MEL-2 melanoma, in the assay on HT29 colon and in the assay on SK-MEL-28 melanoma was more than 100 µM each time. Further, the TGI with OVCAR-8 ovarian, with HCT-15 colon, in the assay with HS 578T breast, with LOX IMVI melanoma, in the assay with OVCAR-3 ovarian and in the assay on U251 CNS was more than 100 µM each time. Moreover, the TGI in the assay with BT-549 breast and in the assay with DU-145 prostate was more than 100 µM in each case.
Turning to `O=C(CSC1=NNC2(C(=O)N1)c1ccccc1-c1ccccc12)NC(=S)Nc1ccccc1`, the TGI with ACHN renal, in the assay with COLO 205 colon, with CAKI-1 renal, with SF-539 CNS, in the assay with RPMI-8226 leukemia and in the assay on HT29 colon was more than 10 µM each time. The TGI in the assay on SK-MEL-28 melanoma, in the assay with OVCAR-8 ovarian, with HCT-15 colon, in the assay on LOX IMVI melanoma, with BT-549 breast and in the assay with DU-145 prostate was more than 10 µM each time. Further, the TGI in the assay on CCRF-CEM leukemia and with NCI/ADR-RES ovarian was more than 10 µM in each case.
In the case of `CC(C)(C)OC(=O)N(CCCCNCc1ccc2ccccc2c1)CCCNCc1ccc2ccccc2c1`, the TGI was 3.39 µM with ACHN renal; 2.72 µM in the assay on COLO 205 colon; 2.45 µM in the assay on CAKI-1 renal; 2.97 µM with SF-539 CNS; 2.17 µM in the assay with HT29 colon; 3.39 µM in the assay on SK-MEL-28 melanoma. Moreover, the TGI in the assay with OVCAR-8 ovarian turned out to be 3.08 µM; in the assay with HCT-15 colon, 3.12 µM; with HS 578T breast, 3.3 µM; with U251 CNS, 3.49 µM; with BT-549 breast, 3.25 µM; with DU-145 prostate it was 3.1 µM. Moreover, the TGI with CCRF-CEM leukemia stood at 2.86 µM; in the assay on NCI/ADR-RES ovarian it was 3.02 µM.
For the molecule `Cc1cccc2c(=O)c3cccc([C@@H](C)C(=O)O)c3oc12`, the TGI in the assay on ACHN renal, in the assay with COLO 205 colon, in the assay on CAKI-1 renal, in the assay with SF-539 CNS, with RPMI-8226 leukemia and in the assay on SK-MEL-2 melanoma was more than 100 µM each time. The TGI in the assay on HT29 colon, with SK-MEL-28 melanoma, in the assay on OVCAR-8 ovarian, in the assay with HCT-15 colon, in the assay on HS 578T breast and with LOX IMVI melanoma was more than 100 µM each time. Further, the TGI with OVCAR-3 ovarian, with U251 CNS, in the assay with DU-145 prostate, with CCRF-CEM leukemia and in the assay with NCI/ADR-RES ovarian was more than 100 µM each time.
Consider `COc1cccc(-c2nc(-c3cnccn3)n(COCCO)n2)c1`, for which the TGI in the assay on COLO 205 colon, in the assay on SF-539 CNS, in the assay on RPMI-8226 leukemia, in the assay on HT29 colon, in the assay on SK-MEL-28 melanoma and in the assay on OVCAR-8 ovarian was more than 100 µM throughout. Also, the TGI in the assay with HCT-15 colon, in the assay on LOX IMVI melanoma, in the assay with OVCAR-3 ovarian, with U251 CNS, in the assay with BT-549 breast and with DU-145 prostate was more than 100 µM each time. Further, the TGI in the assay with CCRF-CEM leukemia and in the assay with NCI/ADR-RES ovarian was more than 100 µM in each case.
Turning to `CN(C)Cc1cc(N=Nc2ccc(Cl)cc2)ccc1OC(=O)c1ccccc1`, the TGI in the assay on ACHN renal is 28.7 µM; in the assay on COLO 205 colon, 40.8 µM; in the assay with SF-539 CNS it was 34.5 µM; in the assay on RPMI-8226 leukemia, 40.7 µM; in the assay with HT29 colon it was 27.5 µM; in the assay with SK-MEL-28 melanoma, 29.7 µM. In addition, the TGI in the assay with OVCAR-8 ovarian was 34.4 µM; in the assay with HCT-15 colon it was 29.1 µM; in the assay with HS 578T breast it was 46.9 µM; in the assay on LOX IMVI melanoma, 27.6 µM; with OVCAR-3 ovarian it was 32.3 µM; in the assay on U251 CNS, 29.4 µM. Moreover, the TGI with BT-549 breast is 47.8 µM; with DU-145 prostate, 30.7 µM; with CCRF-CEM leukemia, 38.8 µM; with NCI/ADR-RES ovarian, 45.4 µM.
